Source: ChEMBL document CHEMBL4725489, “Synthesis, Characterization, and In Silico Studies of Novel Spirooxindole Derivatives as Ecto-5'-Nucleotidase Inhibitors” (ACS Med Chem Lett, 2020)
The source made the active and inactive calls. The calls are words filed in the database; no cut-off is given here.

Assays:
5'-nucleotidase [1] = target: T1, 5'-nucleotidase (Rattus norvegicus, UniProt P21588); assay: (§1) Inhibition of recombinant rat ecto-5' nucleotidase expressed in COS7 cell membranes assessed as inorganic phosphate release using AMP as substrate uM preincubated for 10 mins followed by substrate addition and measured after 20 mins by malachite green dye based spectrophotometry
T1 sequence (P21588 whole entry): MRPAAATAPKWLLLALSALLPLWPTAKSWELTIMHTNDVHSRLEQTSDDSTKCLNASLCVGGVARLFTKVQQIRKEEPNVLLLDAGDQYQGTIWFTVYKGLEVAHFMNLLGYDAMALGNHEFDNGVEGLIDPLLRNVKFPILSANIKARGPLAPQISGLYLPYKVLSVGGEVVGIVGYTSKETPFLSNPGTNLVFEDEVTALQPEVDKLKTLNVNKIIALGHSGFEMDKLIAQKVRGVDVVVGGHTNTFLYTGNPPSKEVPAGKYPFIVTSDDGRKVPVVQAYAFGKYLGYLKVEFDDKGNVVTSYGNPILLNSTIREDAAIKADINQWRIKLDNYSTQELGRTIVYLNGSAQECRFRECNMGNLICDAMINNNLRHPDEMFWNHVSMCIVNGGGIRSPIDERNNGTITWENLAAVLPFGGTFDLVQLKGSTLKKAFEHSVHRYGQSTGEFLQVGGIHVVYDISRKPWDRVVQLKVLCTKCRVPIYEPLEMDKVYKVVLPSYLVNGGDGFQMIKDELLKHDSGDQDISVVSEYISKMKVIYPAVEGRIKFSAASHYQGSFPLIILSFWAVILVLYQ

5'-nucleotidase [2] = target: T2, 5'-nucleotidase (Homo sapiens, UniProt P21589); assay: (§2) Inhibition of recombinant human ecto-5' nucleotidase expressed in COS7 cell membranes assessed as inorganic phosphate release using AMP as substrate preincubated for 10 mins followed by substrate addition and measured after 20 mins by malachite green dye based spectrophotometry
Target sequence in this assay (P21589 whole entry): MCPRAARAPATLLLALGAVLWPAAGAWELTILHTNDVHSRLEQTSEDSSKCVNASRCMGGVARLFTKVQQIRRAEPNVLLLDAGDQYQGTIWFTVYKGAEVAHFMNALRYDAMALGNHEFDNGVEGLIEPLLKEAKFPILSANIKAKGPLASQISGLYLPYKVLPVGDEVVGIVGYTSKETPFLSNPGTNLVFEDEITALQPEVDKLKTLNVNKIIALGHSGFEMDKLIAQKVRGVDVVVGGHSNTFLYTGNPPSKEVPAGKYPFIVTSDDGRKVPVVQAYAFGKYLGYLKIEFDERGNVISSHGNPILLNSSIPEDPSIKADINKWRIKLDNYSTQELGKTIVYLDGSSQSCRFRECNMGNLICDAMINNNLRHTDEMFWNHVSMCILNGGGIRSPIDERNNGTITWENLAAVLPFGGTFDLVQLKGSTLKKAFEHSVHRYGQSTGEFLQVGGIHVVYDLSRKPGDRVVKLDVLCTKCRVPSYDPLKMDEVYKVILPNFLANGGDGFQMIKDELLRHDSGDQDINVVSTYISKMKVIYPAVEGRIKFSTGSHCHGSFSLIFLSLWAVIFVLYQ

[3] = Selectivity index, ratio of IC50 for recombinant rat ecto-5' nucleotidase expressed in COS7 cell membranes to IC50 for recombinant human ecto-5' nucleotidase expressed in COS7 cell membranes; type: cell-based
5'-nucleotidase [4] = target: T2, 5'-nucleotidase; assay: as §2, with “as substrate at 100 uM preincubated for” for “as substrate preincubated for”, “based spectrophotometry relative to control” for “based spectrophotometry”
Target sequence in this assay (P21589 whole entry): as above

[5] = target: T3, 5'-nucleotidase (Rattus norvegicus) (UniProt P21588); assay: Uncompetitive inhibition of rat ecto-5' nucleotidase assessed as increase in Km with constant Vmax at 0 to 0.6 uM by Lineweaver-Burk plot analysis; details: dose microM 0-0.6
T3 sequence (whole entry): T1 sequence (P21588 whole entry)

5'-nucleotidase [6] = target: T2, 5'-nucleotidase; assay: Inhibition of recombinant human ecto-5' nucleotidase expressed in COS7 cell membranes using AMP as substrate preincubated for 10 mins followed by substrate addition and measured after 20 mins by capillary electrophoresis method
Target sequence in this assay (P21589 whole entry): as above

[7] = target: T3, 5'-nucleotidase (Rattus norvegicus); assay: as §1, with “as substrate at 100 uM preincubated” for “as substrate uM preincubated”, “based spectrophotometry relative to control” for “based spectrophotometry”
5'-nucleotidase [8] = target: T2, 5'-nucleotidase; assay: Potency index, ratio of sulfamic acid IC50 to compound IC50 for human ecto-5' nucleotidase expressed in COS7 cell membranes assessed as inorganic phosphate release using AMP as substrate preincubated for 10 mins followed by substrate addition and measured after 20 mins by malachite green dye based …
Target sequence in this assay (P21589 whole entry, looked up): as the sequence (P21589 whole entry) above

5'-nucleotidase [9] = target: T2, 5'-nucleotidase; assay: Noncompetitive inhibition of human ecto-5' nucleotidase assessed as increase in Km with constant Vmax at 0 to 0.6 uM by Lineweaver-Burk plot analysis; details: dose microM 0-0.6
Target sequence in this assay (P21589 whole entry): as above

For `Cc1[nH]nc2c1C1(C(=O)N(C)c3ccc(OC(F)(F)F)cc31)C(C#N)=C(N)N2` (centres undefined), the IC50 (5'-nucleotidase [1]) was 3560 nM and the IC50 (5'-nucleotidase [2]) was 180 nM.

`CN1C(=O)C2(C(C#N)=C(N)Nc3n[nH]cc32)c2cc(F)ccc21` (centres undefined) showed an IC50 (5'-nucleotidase [1]) of 7990 nM, an IC50 (5'-nucleotidase [2]) of 460 nM and a Ratio IC50 [3] of 17.3.

In the case of `Cc1[nH]nc2c1C1(C(=O)N(C)c3ccccc31)C(C#N)=C(N)N2` (centres undefined), the IC50 (5'-nucleotidase [1]) is reported as 190 nM, the inhibition (5'-nucleotidase [4]) is reported as 36.6% and the inhibition [5] is reported as “Active”.

For `Cc1ccc(-n2nc(C)c3cc(Cl)c(-c4cc(C)ccc4O)nc32)cc1`, the IC50 (5'-nucleotidase [6]) was 320 nM.

In the case of `Cc1[nH]nc2c1C1(C(=O)Nc3ccccc31)C(C#N)=C(N)N2` (centres undefined), the inhibition (5'-nucleotidase [4]) is reported as 33% and the inhibition [7] is reported as 36.5%.

Work on `CN1C(=O)C2(C(C#N)=C(N)Nc3n[nH]cc32)c2cc(OC(F)(F)F)ccc21` (centres undefined) yielded an IC50 (5'-nucleotidase [1]) of 520 nM, an IC50 (5'-nucleotidase [2]) of 150 nM and a Ratio IC50 (5'-nucleotidase [8]) of 280. For the same compound, the inhibition (5'-nucleotidase [9]) was “Active”.

Work on `CN1C(=O)C2(C(C#N)=C(N)Nc3n[nH]cc32)c2cc(Cl)ccc21` (centres undefined) yielded an IC50 (5'-nucleotidase [1]) of 680 nM and an inhibition (5'-nucleotidase [4]) of 39.7%.

For `N#CC1=C(N)Nc2n[nH]cc2C12C(=O)Nc1ccccc12` (centres undefined), the inhibition (5'-nucleotidase [4]) was 27.6% and the inhibition [7] was 41.7%.

`Cc1[nH]nc2c1C1(C(=O)N(C)c3ccc([N+](=O)[O-])cc31)C(C#N)=C(N)N2` (centres undefined) gave an inhibition (5'-nucleotidase [4]) of 34.3% and an inhibition [7] of 45.1%.

For `CN1C(=O)C2(C(C#N)=C(N)Nc3n[nH]cc32)c2ccccc21` (centres undefined), the inhibition [7] was 41% and the IC50 (5'-nucleotidase [2]) was 690 nM.

For `CN1C(=O)C2(C(C#N)=C(N)Nc3n[nH]cc32)c2cc([N+](=O)[O-])ccc21` (centres undefined), the IC50 (5'-nucleotidase [1]) was 2120 nM and the inhibition (5'-nucleotidase [4]) was 38%.

`Cc1[nH]nc2c1C1(C(=O)N(C)c3ccc(Cl)cc31)C(C#N)=C(N)N2` (centres undefined) showed an IC50 (5'-nucleotidase [1]) of 1560 nM and an inhibition (5'-nucleotidase [4]) of 33%.

Work on `Cc1[nH]nc2c1C1(C(=O)N(C)c3ccc(F)cc31)C(C#N)=C(N)N2` (centres undefined) yielded an IC50 (5'-nucleotidase [1]) of 5010 nM and an IC50 (5'-nucleotidase [2]) of 260 nM.
